According to PubChem BioAssay AID489006 (Sanford-Burnham Center for Chemical Genomics, 2010):
The source made the active and inactive calls. How the calls were made is not given here.

Tested on: Jurkat NF-kB reporter, luminescence
Assay: Jurkat NF-kB signaling inhibitors – cell-based, luminescence, selectivity assay for B-cell receptor NF-kB inhibitor project, dose response (AID 489006)

| SMILES | IC50 |
| --- | --- |
| Cc1cc(=O)[nH]c2c(C)cc(S(=O)(=O)N3CCCCC3)cc12 | > 80 µM (inactive) |
| CCn1c(=O)cc(OCC(=O)NCc2ccc(C)o2)c2ccccc21 | > 80 µM (inactive) |
| COc1cc(NC(=O)c2ccco2)c(OC)cc1NC(=O)c1cc(OC)c(OC)c(OC)c1 | 23 µM (inactive) |
| CC1CCN(CCCNC(=O)COc2cc(=O)n(C)c3ccccc23)CC1 | > 80 µM (inactive) |
| CCOC(=O)N1CCN(c2ncnc3c2[nH]c2ccc(OC)cc23)CC1 | 61 µM (inactive) |
| COc1ccc(-c2ccc(F)cc2)cc1[C@H]1[C@H]2C=CC[C@@H](C)[C@@H]2C(=O)N1Cc1ccccc1 | > 80 µM (inactive) |
| Cc1[nH]c2ccccc2c1/C=N/Nc1nc(Nc2ccccc2)nc(N2CCOCC2)n1 | 35.2 µM (inactive) |
| CC(=C\c1ccccc1)/C=C1/SC(=O)N(CCCC(=O)Nc2ccc(C(=O)O)cc2)C1=O | > 80 µM (inactive) |
| O=C(NCCC1CCCCN1S(=O)(=O)c1ccc(Cl)cc1)C(=O)NCc1ccncc1 (stereo not drawn) | > 80 µM (inactive) |
| CC(=O)C1=NN(c2ccccc2)C(c2cccs2)N1c1ccc(N(C)C)cc1 (stereo not drawn) | > 80 µM (inactive) |
| C=C1C(=O)[C@@]23C[C@H]4[C@@H]5[C@@]6(C)CCC[C@@]57[C@@H]2[C@@H](O)[C@@H]1C[C@H]3[C@H]7N4C6 | 2.85 µM |
| O=C(N/N=C/c1cccnc1)c1cc(-c2ccccc2OCc2ccccc2)n[nH]1 | > 80 µM (inactive) |
| CC(C)c1ccc(/C=C2\SC(=S)N(CCC(=O)N3CCCCC3CCO)C2=O)cc1 (stereo not drawn) | 0.33 µM |
| Cc1nn(-c2ccc(N3CCCCC3)nn2)c(C)c1CCC(=O)Nc1ccccc1F | 71.1 µM (inactive) |
| CC1Cc2ccccc2N1S(=O)(=O)c1cnc(Cl)c(Br)c1 (stereo not drawn) | 27.2 µM (inactive) |
| COc1ccc(N(CC(=O)N2CCN(c3ccc(Cl)cc3)CC2)S(=O)(=O)c2c(C)n[nH]c2C)cc1 | > 80 µM (inactive) |
| CC1=CC(C)(C)Nc2ccc(OC(=O)CN3C(=O)c4ccccc4C3=O)cc21 | 1.28 µM |
| N=c1c2c(n(Cc3ccc(Cl)c(Cl)c3)c3c1CCC3)CCCC2 | 9.18 µM |
| CCOc1ccc(/C=C2\SC(=S)N(CCC(=O)Nc3ccc(C(=O)O)cc3)C2=O)cc1 | > 80 µM (inactive) |
| CCOc1cc(/C=N\Nc2nc(Nc3ccccc3)nc(N3CCOCC3)n2)ccc1OC(=O)c1ccco1 | > 80 µM (inactive) |
| O=C(CN1C(=O)c2ccccc2S1(=O)=O)N1CCc2ccccc21 | 1.76 µM |
| CN(CC1CCCO1)S(=O)(=O)c1ccc(C(=O)Nc2nc3cc4c(cc3s2)OCO4)cc1 (stereo not drawn) | > 80 µM (inactive) |
| Nc1ccccc1SCC(=O)Nc1nc(-c2ccccc2)cs1 | > 80 µM (inactive) |
